Source: patent publication US20160235727A1, “NOVEL PYRROLIDINE DERIVED BETA 3 ADRENERGIC RECEPTOR AGONISTS” (Merck Sharp & Dohme Corp., priority 2013, published 2016)

Biological target: T1, human β3-AR (Homo sapiens, UniProt P13945)
T1 construct: expressed in transfected cells; host or cells: CHO (Chinese hamster ovary) cells, stably transfected
Test: cAMP functional agonist assay (LANCE TR-FRET) in CHO cells expressing cloned human β3-AR
Type: cell-based
Details: for EC50: CHO cells stably expressing cloned human β3-adrenoceptor, cAMP release, read-out: Human β3-AR Agonism EC50; for Human β3-AR Agonist Activity (%): percent maximum activation relative to isoproterenol; for Fold drop in potency vs. 2-chloropyridine analog: EC50 of comparative example divided by EC50 of corresponding 2-chloropyridine compound
Description: The ability of compounds to activate the human β3-AR receptor was measured using a CHO cell line stably expressing the cloned human β1-, β2-, and β3-adrenoceptors (β-AR). […] To quantify the amount of cAMP released following β-AR activation, the LANCE cAMP kit (Perking Elmer), a time-resolved fluorescence resonance energy transfer immunoassay, was used. Compounds were serially diluted in DMSO and an aliquot added to either 384-well or 96-well micro titer plates in assay buffer (5 mM HEPES, 0.1% BSA in Hank's Balanced Salt Solution). […] Following 30 min incubation at room temperature, the cells were lysed by the addition of LANCE detection buffer which contained a europium-labeled cAMP tracer. Fluorescence was measured following one hour incubation at room temperature using a Perking Elmer Envision plate reader, exciting at 340 nm and measuring emission at 615 nm and 665 nm. For each assay, a cAMP standard curve was included and used to convert fluorescence readings directly to cAMP amounts. The values were then normalized to isoproterenol, a known full agonist of β-AR, which was titrated in every assay and the EC50 determined using a custom in-house data analysis package. Along with EC50, the percent maximum activation relative to isoproterenol is reported.
The cAMP production is measured using a homogenous time-resolved fluorescence resonance energy transfer immunoassay (LANCE™, Perkin Elmer) according to the manufacture's instructions. Chinese hamster ovary (CHO) cells, stably transfected with the cloned β-adrenergic receptor (β1, β2 or β3) are harvested after 3 days of subculturing. Harvesting of cells is done with Enzyme-free Dissociation Media (Specialty Media). Cells are then counted and resuspended in assay buffer (Hank's Balanced salt solution supplemented with 5 mM HEPES, […]) containing a phosphodiesterase inhibitor (IBMX, 0.6 mM). The reaction is initiated by mixing 6,000 cells in 6 μL with 6 μL Alexa Fluor labeled cAMP antibody (LANCE™ kit) which is then added to an assay well containing 12 μL of compound (diluted in assay buffer to 2× final concentration). The reaction proceeds for 30 minutes at RT and is terminated by the addition of 24 ul detection buffer (LANCE™ kit). The assay plate is then incubated for 1 h at RT and time-resolved fluorescence measured on a Perkin Elmer Envision reader or equivalent. The unknown cAMP level is determined by comparing fluorescence levels to a cAMP standard curve.
The non-selective, full agonist β-adrenergic ligand isoproterenol is used at all three receptors to determine maximal stimulation. […] Data are analyzed using Microsoft Excel and Graphpad Prism or an internally developed data analysis software package. […]

T1 sequence (P13945 whole entry): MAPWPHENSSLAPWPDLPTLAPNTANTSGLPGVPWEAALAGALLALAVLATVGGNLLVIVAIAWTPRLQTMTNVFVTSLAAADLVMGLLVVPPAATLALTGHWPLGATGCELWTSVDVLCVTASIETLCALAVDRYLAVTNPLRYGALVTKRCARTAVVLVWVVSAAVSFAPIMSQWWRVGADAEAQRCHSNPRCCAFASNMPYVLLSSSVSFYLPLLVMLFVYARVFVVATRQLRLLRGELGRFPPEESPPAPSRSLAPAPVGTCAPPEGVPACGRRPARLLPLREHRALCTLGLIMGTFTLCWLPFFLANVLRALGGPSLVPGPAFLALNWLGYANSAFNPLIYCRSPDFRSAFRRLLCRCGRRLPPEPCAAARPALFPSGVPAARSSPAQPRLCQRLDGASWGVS

| SMILES | EC50 | Human β3-AR Agonist Activity (%) | Fold drop in potency vs. 2-chloropyridine analog |
| --- | --- | --- | --- |
| Cc1[nH]nc(CN(C)C(=O)c2ccc(C[C@@H]3CC[C@H]([C@H](O)c4ccc(Cl)nc4)N3)cc2)c1O [Example 15-A, 4-(((2S,5R)-5-((R)-(6-chloropyridin-3-yl)(hydroxy)methyl)pyrrolidin-2-yl)methyl)-N-((4-hydroxy-5-methyl-1H-pyrazol-3-yl)methyl)-N-methylbenzamide] | 1 nM | 94% | – |
| Cc1[nH]nc(CN(C)C(=O)c2ccc(C[C@@H]3CC[C@H]([C@H](O)c4ccccc4)N3)cc2)c1O [Example 15-B, 4-(((2S, 5R)-5-((R)-hydroxy(phenyl)methyl)pyrrolidin-2-yl)methyl)-N-((4-hydroxy-5-methyl-1H-pyrazol-3-yl)methyl)-N-methylbenzamide] | 5 nM | 112% | 5.9 fold |
| COc1c(CN(C)C(=O)c2ccc(C[C@@H]3CC[C@H]([C@H](O)c4ccc(Cl)nc4)N3)cc2)n[nH]c1C [Example 16-A, 4-(((2S,5R)-5-((R)-(6-chloropyridin-3-yl)(hydroxy)methyl)pyrrolidin-2-yl)methyl)-N-((4-methoxy-5-methyl-1H-pyrazol-3-yl)methyl)-N-methylbenzamide] | 2 nM | 102% | – |
| COc1c(C)n[nH]c1CN(C)C(=O)c1ccc(C[C@@H]2CC[C@H]([C@H](O)c3ccccc3)N2)cc1 [Example 16-B, 4-(((2S,5R)-5-((R)-hydroxy(phenyl)methyl)pyrrolidin-2-yl)methyl)-N-((4-methoxy-5-methyl-1H-pyrazol-3-yl)methyl)-N-methylbenzamide] | 10 nM | 101% | 6.2 fold |
| Cc1[nH]nc(CN(C)C(=O)c2ccc(C[C@@H]3CC[C@H]([C@H](O)c4ccc(Cl)nc4)N3)cc2)c1Cl [Example 17-A, N-((4-chloro-5-methyl-1H-pyrazol-3-yl)methyl)-4-(((2S,5R)-5-((R)-(6-chloropyridin-3-yl)(hydroxy)methyl)pyrrolidin-2-yl)methyl)-N-methylbenzamide] | 4 nM | 94% | – |
| Cc1n[nH]c(CN(C)C(=O)c2ccc(C[C@@H]3CC[C@H]([C@H](O)c4ccccc4)N3)cc2)c1Cl [Example 17-B, N-((4-chloro-5-methyl-1H-pyrazol-3-yl)methyl)-4-(((2S,5R)-5-((R)-hydroxy(phenyl)methyl)pyrrolidin-2-yl)methyl)-N-methylbenzamide] | 17 nM | 112% | 4.5 fold |
| C[C@H](c1nn(C)c(=O)o1)N(C)C(=O)c1ccc(C[C@@H]2CC[C@H]([C@H](O)c3ccc(Cl)nc3)N2)cc1 [Example 18-A, 4-(((2S,5R)-5-((R)-(6-chloropyridin-3-yl)(hydroxy)methyl)pyrrolidin-2-yl)methyl)-N-methyl-N—((R)-1-(4-methyl-5-oxo-4,5-dihydro-1,3,4-oxadiazol-2-yl)ethyl)benzamide] | 8 nM | 101% | – |
| C[C@H](c1nn(C)c(=O)o1)N(C)C(=O)c1ccc(C[C@@H]2CC[C@H]([C@H](O)c3ccccc3)N2)cc1 [Example 18-B, 4-(((2S,5R)-5-((R)-hydroxy(phenyl)methyl)pyrrolidin-2-yl)methyl)-N-methyl-N—((R)-1-(4-methyl-5-oxo-4,5-dihydro-1,3,4-oxadiazol-2-yl)ethyl)benzamide] | 68 nM | 105% | 8.6 fold |
| C[C@H](c1nn(C)c(=O)o1)N(C)C(=O)c1ccc(C[C@@H]2CC[C@H]([C@H](O)c3ccc(Cl)cc3)N2)cc1 [Example 18-G, 4-(((2S,5R)-5-((R)-(4-chlorophenyl)(hydroxy)methyl)pyrrolidin-2-yl)methyl)-N-methyl-N—((R)-1-(4-methyl-5-oxo-4,5-dihydro-1,3,4-oxadiazol-2-yl)ethyl)benzamide] | 13 nM | 101% | 1.7 fold |
| CC(C)[C@H](c1nn(C)c(=O)o1)N(C)C(=O)c1ccc(C[C@@H]2CC[C@H]([C@H](O)c3ccc(Cl)nc3)N2)cc1 [Example 19-A, 4-(((2S,5R)-5-((R)-(6-chloropyridin-3-yl)(hydroxy)methyl)pyrrolidin-2-yl)methyl)-N-methyl-N—((R)-2-methyl-1-(4-methyl-5-oxo-4,5-dihydro-1,3,4-oxadiazol-2-yl)propyl) benzamide] | 5 nM | 111% | – |
| CC(C)[C@H](c1nn(C)c(=O)o1)N(C)C(=O)c1ccc(C[C@@H]2CC[C@H]([C@H](O)c3ccccc3)N2)cc1 [Example 19-B, 4-(((2S,5R)-5-((R)-hydroxy(phenyl)methyl)pyrrolidin-2-yl)methyl)-N-methyl-N—((R)-2-methyl-1-(4-methyl-5-oxo-4,5-dihydro-1,3,4-oxadiazol-2-yl)propyl)benzamide] | 32 nM | 115% | 5.8 fold |
| CN(Cc1cccc(=O)[nH]1)C(=O)c1ccc(C[C@@H]2CC[C@H]([C@H](O)c3ccc(Cl)nc3)N2)cc1 [Example 20-A, 4-(((2S,5R)-5-((R)-(6-chloropyridin-3-yl)(hydroxy)methyl)pyrrolidin-2-yl)methyl)-N-methyl-N-((6-oxo-1,6-dihydropyridin-2-yl)methyl)benzamide] | 5 nM | 108% | – |
| CN(Cc1cccc(=O)[nH]1)C(=O)c1ccc(C[C@@H]2CC[C@H]([C@H](O)c3ccccc3)N2)cc1 [Example 20-B, 4-(((2S,5R)-5-((R)-hydroxy(phenyl)methyl)pyrrolidin-2-yl)methyl)-N-methyl-N-((6-oxo-1,6-dihydropyridin-2-yl)methyl)benzamide] | 9 nM | 103% | 2.1 fold |
| CN(Cc1cccc(=O)[nH]1)C(=O)c1ccc(C[C@@H]2CC[C@H]([C@H](O)c3ccc(OC(F)F)cc3)N2)cc1 [Example 20-E, 4-(((2S,5R)-5-((R)-(4-(difluoromethoxy)phenyl)(hydroxy)methyl)pyrrolidin-2-yl)methyl)-N-methyl-N-((6-oxo-1,6-dihydropyridin-2-yl)methyl)benzamide] | 86 nM | 72% | 18.9 fold |
| CN(Cc1cccc(=O)[nH]1)C(=O)c1ccc(C[C@@H]2CC[C@H]([C@H](O)c3ccc(Cl)cc3)N2)cc1 [Example 20-G] | 6 nM | 99% | 4.5 fold |
| CN(Cc1cccnc1)C(=O)c1ccc(C[C@@H]2CC[C@H]([C@H](O)c3ccc(Cl)nc3)N2)cc1 [Example 21-A, 4-(((2S,5R)-5-((R)-(6-chloropyridin-3-yl)(hydroxy)methyl)pyrrolidin-2-yl)methyl)-N-methyl-N-(pyridin-3-ylmethyl)benzamide] | 4 nM | 102% | – |
| CN(Cc1cccnc1)C(=O)c1ccc(C[C@@H]2CC[C@H]([C@H](O)c3ccccc3)N2)cc1 [Example 21-B, 4-(((2S,5R)-5-((R)-hydroxy(phenyl)methyl)pyrrolidin-2-yl)methyl)-N-methyl-N-(pyridin-3-ylmethyl)benzamide] | 41 nM | 86% | 9.7 fold |
| CN(Cc1cccnc1)C(=O)c1ccc(C[C@@H]2CC[C@H]([C@H](O)c3cccc(F)c3)N2)cc1 [Example 21-C, 4-(((2S,5R)-5-((R)-(3-fluorophenyl)(hydroxy)methyl)pyrrolidin-2-yl)methyl)-N-methyl-N-(pyridin-3-ylmethyl)benzamide] | 10 nM | 100% | 2.3 fold |
| CN(Cc1cccnc1)C(=O)c1ccc(C[C@@H]2CC[C@H]([C@H](O)c3cccc(Cl)c3)N2)cc1 [Example 21-D, 4-(((2S,5R)-5-((R)-(3-chlorophenyl)(hydroxy)methyl)pyrrolidin-2-yl)methyl)-N-methyl-N-(pyridin-3-ylmethyl)benzamide] | 120 nM | 97% | 28.2 fold |
